In patent US20250186536A1, “SUSTAINED RELEASE PEPTIDE FORMULATIONS” (RHYTHM PHARMACEUTICALS, INC., priority 2017, published 2025):

Experiments:
[1] = Stability analysis of setmelanotide formulations (degradation by HPLC); type: physicochemical
Description: Components of exemplary setmelanotide formulations were varied in order to assess their impact on the stability of setmelanotide over time. In a first study, setmelanotide formulations were prepared as described in Example 2 with 30 mg/mL setmelanotide using different forms of GDO: 1) GDO of commercial purity; 2) GDO of commercial purity, which has been further purified to remove fatty acid compounds; and 3) synthetic GDO. The formulations were stored in 1 mL glass syringes equipped with staked stainless steel […] and rubber plungers at 40° C. for up to three months.
The effect of EDTA concentration on setmelanotide degradation was also investigated in a second study. Syringes containing setmelanotide formulations with higher EDTA along with GDO of varying sources were prepared, and setmelanotide degradation was quantified by HPLC over time. The results of this study are depicted in FIG. 6, and indicate that higher concentrations of EDTA have a small effect on setmelanotide stability in the presence of either GDO of commercial purity or synthetic GDO.
In a third study, the effect of setmelanotide and EDTA concentrations were explored in the presence of synthetic GDO.

[2] = Part A single-dose pharmacokinetics of long-acting setmelanotide formulation in healthy obese subjects; type: in vivo, human; conditions: for AUC(0-inf) / Cmax / Tmax / half-life: human, plasma; for Tmax: read-out: median tmax
Description: (§1) In order to assess the pharmacokinetics of setmelanotide, a two part study was carried out comprising single dose administration (Part A) and multiple dose administration (Part B) with healthy obese subjects.
(§2) Part A was a rising-dose, placebo-controlled study including up to 3 sequential panels. For each panel, 10 normal obese subjects in good health between the ages of 21 and 54 were assigned to randomly-ordered treatments which included 8 active and 2 placebo treatments. Data acquired from Part A were used to determine the dose and dosing regimen for Part B. In Part B, 12 normal healthy obese patients were randomly assigned to receive either 6 active and 6 placebo treatments. Subjects received once weekly subcutaneous injection of the assigned formulation for 4 weeks. Patients in Part B were housed in the clinical unit for the 28 days.
(§3) Setmelanotide was formulated in a sterile liquid polar lipid phase consisting of soy phosphatidylcholine, glycerol dioleate, ethanol and citrate buffer. Without being bound by theory, the setmelanotide formulation behaves in a long-acting fashion, wherein when injected subcutaneously, aqueous body fluid is absorbed by the lipid phase to form a gel like depot consisting of liquid crystals formed in situ.
10 normal obese subjects enrolled for each dose level of Part A; 8 received active drug, and 2 received placebo. There were 3 dose levels used in the single dose phase which were administered according to the sequential, rising dose design. The single setmelanotide doses administered were in sequence: 2.5 mg, 10 mg, and 30 mg. Setmelanotide concentrations were analyzed and safety was assessed before the next higher dose level was started. The drug was administered subcutaneously on the morning of dosing. Blood samples were collected prior to dosing and at 0.5, 1, 2, 3, 4, 6, 8, 10, 12, 16, 24, 30, and 36 hours post-dose (in the clinic), then at approximately 48, 60, 72, 96, 120, 168, 240, and 336 hours post-dose as outpatients. Based on the PK analysis of the first dose, additional blood samples were included for the 30 mg dose at 21 ([…]) and 28 ([…]) days post-dose. The actual times of blood collection were recorded.

[3] = Part B multiple-dose pharmacokinetics (once weekly for 4 weeks) in obese subjects; type: in vivo, human
Description: as §1, §2, §3
Twelve (12) obese subjects were enrolled in Part B; 6 received active drug, and 6 were given placebo. Based on results from Part A, setmelanotide 10 mg once weekly was selected as the dose for Part B. Subjects were housed in the clinical facility for the entire 4 weeks of study. Qualified subjects entered the clinical facility the evening before the first dose. Subjects assigned to active treatment received setmelanotide 10 mg subcutaneously in the morning on Day 1. Placebo subjects received the same volume of the placebo injection as the active treatment. Subjects were fasting from the evening before to 4 hours after dosing. Standard lowfat meals were served. Subjects were also dosed on Days 8, 15, and 22 with the treatment given on Day 1.
Blood samples were collected at a time before dosing and at 0.5, 1, 2, 3, 4, 6, 8, 10, 12, 16, 24, 30, 36, 48, 60, 72, 96, 120, 168, 240, and 336 hours during Week 1 and during Week 4. The actual sampling times were recorded. In addition, blood samples were collected at a time just before dosing for trough setmelanotide concentrations for evaluating the attainment of steady state.

[4] = 10 mg SC once weekly for 4 weeks

CC(=O)N[C@@H](CCCNC(=N)N)C(=O)N[C@H]1CSSC[C@@H](C(N)=O)NC(=O)[C@H](Cc2c[nH]c3ccccc23)NC(=O)[C@H](CCCNC(=N)N)NC(=O)[C@@H](Cc2ccccc2)NC(=O)[C@H](Cc2c[nH]cn2)NC(=O)[C@@H](C)NC1=O [setmelanotide]
setmelanotide degradation ([1]; 15 mg/mL formulations compared with 30 mg/mL formulations, synthetic GDO): higher levels of degradation | setmelanotide degradation ([1]; 30 mg/mL formulation prepared with synthetic GDO vs GDO of commercial purity or further purified, 40° C. up to three months, HPLC): lower amount | effect of higher EDTA concentration on setmelanotide stability ([1]; GDO of commercial purity or synthetic GDO, HPLC over time): small effect | effect of increasing EDTA concentration on degradation ([1]; as setmelanotide concentration decreases, synthetic GDO): greater effect | dose proportionality of AUC∞ ([2]; 2.5 mg dose): less than proportional | dose proportionality of AUC ([2]; 10 mg and 30 mg doses): proportional | dose proportionality of Cmax ([2]; 2.5 to 30 mg dose range): roughly proportional | AUC(0-inf) ([2]; single SC dose 2.5 mg): 92.9 ng·h/mL | Cmax ([2]; single SC dose 2.5 mg): 2.92 ng/mL | Tmax ([2]; single SC dose 2.5 mg): 3.5 h | AUC(0-inf) ([2]; single SC dose 10 mg): 1140 ng·h/mL | Cmax ([2]; single SC dose 10 mg): 11.5 ng/mL | half-life ([2]; single SC dose 10 mg): 123 h | Tmax ([2]; single SC dose 10 mg): 4 h | AUC(0-inf) ([2]; single SC dose 30 mg): 3470 ng·h/mL | Cmax ([2]; single SC dose 30 mg): 34.1 ng/mL | half-life ([2]; single SC dose 30 mg): 159 h | Tmax ([2]; single SC dose 30 mg): 6 h | time by which all values were below quantifiable ([2]; single SC dose 2.5 mg): ≤ 96 h | time past which profile was defined ([2]; single SC dose 10 mg): > 168 h | time past which profile was defined ([2]; single SC dose 30 mg): > 168 h | earliest plasma sample time in which setmelanotide appeared ([2]; single SC dose, generally): 0.5 h | time measurable in plasma after dosing ([2]; single SC dose, generally): ≥ 2 weeks | time to maximum concentrations after dosing ([2]; single SC dose, generally over the three dose levels): about 4 hours | early burst effect or dose dumping ([2]; single dose administration): no early burst effect or dose dumping | lag-time of absorption ([2]; single dose administration): little to no lag-time | accumulation index [3, 4]: 1.46 | lag in absorption [3, 4]: no lag in absorption | attainment of steady state (trough concentrations, visual inspection) ([3]; 10 mg SC once weekly, 4 weekly doses): attained during Week 4 | Cmax ([3]; human, plasma, 10 mg SC once weekly for 4 weeks): 11.4 ng/mL | level at 168 h ([3]; human, plasma, 10 mg SC once weekly for 4 weeks, end of 1-week dosing interval, read-out: mean concentration at 168 hours): 2.92 ng/mL | Tmax ([3]; human, plasma, 10 mg SC once weekly for 4 weeks, read-out: median tmax): 4 h
